From patent US20140348748A1, “BETA-AMYLOID IMAGING AGENTS, METHODS OF MANUFACTURE, AND METHODS OF USE THEREOF” (priority 2011, published 2014)

Experiments:
[1] = molecular target: beta-amyloid plaques in AD brain tissue (Homo sapiens, UniProt P05067); experiment: In vitro binding assay: competitive displacement of [3H]6-OH-BTA-1 in AD brain homogenate; settings: for Ki: [3H]6-OH-BTA-1 as reference radioligand, AD brain tissue
Protocol: AD brain tissue was homogenized at 1:500 in PBS, and 800 μL suspension was used in each tube. [^3H]6-OH-BTA-1 with a concentration of 1 mCi/mL stock solution was diluted using ethanol to give an intermediate solution of 1 μCi/100 μL, which was further diluted using PBS to result in a dilute stock solution of 2.7×10^−2 μCi/100 μL, and 100 μL was used in each tube (2 vials with 100 μL of [^3H]6-OH-BTA-1 each and scintillation fluid as references). Cold 6-OH-BTA-1 or other displacer was dissolved in ethanol to result in a stock solution of 1×10^−3 M, which was further diluted using PBS or ethanol to result in solutions with concentrations ranging from 1×10^−5 to 10^−10 M, and 100 μL was used in each tube. After assembly, the tubes were vortexed, and incubated for 3 hrs at room temperature. After separation using a cell harvester, the filter paper (GF/B filter paper pretreated with 0.5% polyimine solution) was washed with 10% ethanol in PBS (3×3 mL). The filters were placed into 20 mL glass vials and 10 mL scintillation fluid each was added. After overnight incubation, the samples were counted. The data were analyzed using GraphPad Prism 4 or KaleidaGraph 3.6. […]
Some lipophilic ligands required ethanol in the medium to increase their solubility and to effect displacement of reference radioligand. […] This displacement curve was also analyzed using a homologous displacement mathematical model to extract the Bmax of the amyloid plaques. The measured Bmax is linear with the amount of amyloid used in the experiment. The ratio between Bmax and the amount of Aβ1-42 monomer measured by ELISA is about 1:2, somewhat less than that reported previously. […]
In this table, Ki is a measure (in nM units) of the binding affinity of the compound toward beta-amyloid plaques in AD brain tissue, measured through a competitive radioligand displacement in vitro assay using [^3H]6-OH-BTA-1 as the reference radioligand. The lipophilicity of the compound is represented by c Log D7.4 which is calculated through a software package (ACD/Log D version 8.0) at pH=7.4, a close mimic of physiological conditions. […]

[2] = Evaluation of radioligands in monkey in vivo with PET; design: species or system rhesus monkey; settings: for brain uptake and washout (PET time-activity curves): intravenous, 18F-labelled
Protocol: A male rhesus monkey (15 kg) was initially immobilized with ketamine (15 mg/kg) and subsequently anesthetized with isoflurane (1.5%) for the duration of the experiment. The monkey was placed prone in the PET camera (HRRT, Siemens/CPS, Knoxyille, Tenn., USA). A fixation device was used to secure the monkey's head during scanning. A urinary catheter was inserted and clamped so that the activity overlaying the bladder represented the total urinary excretion during the scan. Electrocardiogram, body temperature, heart and respiration rates were measured throughout the experiment. Body temperature was controlled and monitored by a forced-air temperature management unit (Bair Hugger Model 505; Arizant Healthcare Inc.; MN, USA). The scanner consisted of eight flat panel detectors with a transaxial and axial coverage of 31.2 cm and 25.2 cm, respectively. The scanner is also equipped with dual-layered phoswich detector allowing depth-of-interaction. Dynamic PET scans were acquired in 64-bit list mode format, following the intravenous administration of Compound 1.6 (2.9 mCi). The scan lasted for 2 hours containing 33 frames with duration ranging from 30 seconds to 5 minutes. Data were reconstructed into a 256×256×207 image matrix (voxel size 1.21×1.21×1.23 mm), using a 3D list mode OSEM algorithm. The reconstructed image resolution was 2.5 mm. Transmission scan was acquired with a rotating ^137Cs point source for 6 minutes and used to correct for attenuation. A model-based scatter correction was applied. Tomographic images were analyzed with PMOD 2.6. Time activity curves (FIGS. 4-6) were calculated in % SUV for volume of interest (VOIs), defined by co-registration with MRI (see below), and compared for uptake and washout between different brain regions.
Co-registration of PET Data with MRI. All frames of the original reconstructed PET data were summed and then co-registered to a T1-weighted magnetic resonance (MR) image acquired separately on a 1.5 T Signa MR scanner (GE Medical Systems) with image analysis software MEDx (Sensor Systems Inc.; Sterling, Va., U.S.A.). The summed PET image was fused with the co-registered MR image with an image fusion tool in PMOD. Several VOIs for the source organs were then manually defined on this fused image with anatomical structures identified on the MR image.

[3] = test system: amyloid plaques in AD brain tissue slides; experiment: Autoradiography on post mortem human brain tissue slides; format: binding; settings: for binding in AD brain tissue slides (autoradiography): amyloid-loaded gray matter region; for radioactivity on healthy brain tissue (autoradiography): normal control brain tissue slides
Protocol: Coronal sections of cerebrum from a confirmed case of AD (person, postmortem interval (PMI) 47.5 hours) and a normal control (person, PMI 28.5 hours) were frozen rapidly in an equal mixture of dry ice and isopentane, sealed in a plastic bag and stored at −76° C. before sectioning. Frozen blocks of the medial temporal lobe (hippocampal region) were sectioned at a thickness of 14 μm, mounted on gelatin-coated glass slides, dried and stored under desiccant at −76° C. Before use, slide-mounted tissue sections were removed from the freezer, thawed at room temperature for 20 min, and air-dried. Compounds 1.6, 1.5 and 1.4 (1.0 mg) were dissolved in DMSO (3.529 mL) resulting in a stock solution of 1 mM, which was then further diluted with DMSO to 0.1 mM and then diluted with PBS to 1 μM. The AD tissue and normal tissue slides were pretreated with either a stock solution of Compounds 1.6, 1.5, and 1.4 or PBS for 20 min at room temperature. All slides were incubated for 20 min at room temperature in [^11C]PIB formulation solution (0.3 mCi). They were then dipped in ethanol for 5 min. The slides were dried on a hot plate with a stream of cold air and placed in a cassette with the exposed sides facing up. The phosphor imaging plate was held with the blue side down. The entire cassette was placed in the dark at room temperature overnight for ^11C-labeling. Digital autoradiography was acquired using a FUJI BAS 5000 phosphorimager (FUJI, Tokyo, Japan) with a resolution of 25 μm.

[4] = after intravenous injection into rodent or monkey; cited from earlier work

Chain of beta-amyloid plaques in AD brain tissue (P05067 672-711 limits assumed): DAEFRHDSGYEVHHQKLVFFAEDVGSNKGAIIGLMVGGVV

Ki [1] [nM]	binding in AD brain tissue slides (autoradiography) [3]	Structure (SMILES)	brain uptake and washout (PET time-activity curves) ([2]; normal male rhesus monkey)	radioactivity on healthy brain tissue (autoradiography) [3]	SUV (standardized uptake value) of radioactivity in brain [4]	other results
10	clear displaceable binding	CNc1ccc(-c2nc3ccc(OC)cc3s2)nc1F [Compound 1.5, 2-Fluoro-6-(6-methoxybenzo[d]thiazol-2-yl)-N-methylpyridin-3-amine]	entered the brain very well and washed out fast	no radioactivity was observed		
20	clear displaceable binding	CNc1ccc(-c2nc3ccc(O)cc3s2)nc1F [Compound 1.6, 2-(6-Fluoro-5-(methylamino)pyridin-2-yl)benzo[d]thiazol-6-ol]	entered the brain very well and washed out fast	no radioactivity was observed		pharmacokinetics compared among the three radioligands ([2]; normal male rhesus monkey, PET): most promising pharmacokinetics; time to uniform distribution of radioactivity after injection ([2]; normal monkey, PET): less than 1 hour; binding with amyloid plaques from autoradiography ([3]; summary statement): specific binding
		CNc1ccc(-c2nc3ccc(O)cc3s2)cc1 [Compound 6-OH-BTA-1, 2-[4-(methylamino)phenyl]-6-hydroxybenzothiazole, reference compound]				displacement of reference radioligand ([1]; [3H]6-OH-BTA-1 displaced by non-radioactive ligand, isolated amyloid plaques): > 95%
		CN(CCF)c1ccc(-c2cn3cc(I)ccc3n2)cc1 [[^18F]FEM-IMPY, N-(2-fluoroethyl)-4-(6-iodo-H-imidazo[1,2-a]pyridin-2-yl)-N-methylbenzeneamine]			about 160 % I.D. kg/g	
		CN(CCC[18F])c1ccc(-c2cn3cc(I)ccc3n2)cc1 [[^18F]FPM-IMPY]			about 160 % I.D. kg/g	
